# Values quoted from earlier work, collected in patent US12409106B2, “Medical material” (Senju USA, Inc., priority 2022, dated 2025).
# Settings: Soong T. Chiang et al., Pharmacotherapy 1996
structure (smiles),measurement,value
Nc1c(CC(=O)O)cccc1C(=O)c1ccc(Br)cc1 [bromfenac],topical 50% effective concentration EC50 on pain after oral surgery,0.36 µg/mL
